Drawing on patent US7884117B2, “Carbonylamino pyrrolopyrazoles, potent kinase inhibitors” (Pfizer Inc., priority 2005, dated 2011), this text covers Ki and EC50 for 26 compounds.

Each structure is given as a SMILES string.

The target in assay [1] is T1, PAK4 Kinase domain (PAK4 KD) (Homo sapiens, UniProt O96013).
T1 construct: Cloning, expression, and purification of recombinant PAK4 Kinase domain (PAK4 KD); His tag (pET28a(+)/pET24a(+), Ni-NTA purification) (N, cleaved yes); GST (pGST4.5, glutathione column) (N, cleaved yes); made in house; host or cells: E. coli BL21(DE3)
The experiment in a line: PAK4 kinase domain enzymatic assay (PK/LDH-coupled, Ki). Conditions: PAK4 Kinase Domain. In kind it is biochemical.

The target of assay [2] is T2, PAK4 kinase activity in whole cells (TR-293-KDG, modified HEK 293) (Homo sapiens, UniProt O96013).
T2 construct: engineered to overexpress both GEF-H1b and the kinase domain (KD) of PAK4; expressed in transfected cells; host or cells: TR-293-KDG (modified HEK 293, Trex system, Invitrogen)
The experiment in a line: PAK4 cellular assay: sandwich ELISA of PAK4-dependent phosphorylation of GEF-H1b in TR-293-KDG cells. The conditions noted are these: 3-hour exposure. It counts as cell-based. A general note: An ELISA detects its analyte on a solid surface through an enzyme-linked reagent.
Method: A sandwich ELISA method was used to measure the PAK4 kinase activity in whole cells. The level of PAK4-dependent phosphorylation of GEF-H1b can be determined by monitoring the binding of a phosphospecific antibody to GEF-H1b. […] The KD of PAK4 is inducible in this cell line by tetracycline (Trex system, Invitrogen). […] To establish a phosphorylation event on GEF-HL, cells are induced with doxycycline to express the PAK4 KD. […] Candidate substance effect is measured as the ability to block this phosphorylation event.
ELISA plate was prepared by pre-coating the plates with a capture antibody (α-HA-tag mouse monoclonal antibody), blocked with BSA, and washed in 0.1% tween 20 in tris-buffered saline (TBST). […] Cells were then lysed with a modified RIPA buffer supplemented with protease inhibitors. […] Between all subsequent steps plates were washed 4 times with TBST. Detection antibody (recognizing the phospho-specific eptitope on GEF-H1b) was added for 1 hour, followed by addition of an enzyme linked goat α-rabbit secondary antibody for 45 minutes. […] EC50 values were calculated by sigmoid curve fitting using a four-parameter analysis.

T1 sequence (O96013 321-572 limits assumed): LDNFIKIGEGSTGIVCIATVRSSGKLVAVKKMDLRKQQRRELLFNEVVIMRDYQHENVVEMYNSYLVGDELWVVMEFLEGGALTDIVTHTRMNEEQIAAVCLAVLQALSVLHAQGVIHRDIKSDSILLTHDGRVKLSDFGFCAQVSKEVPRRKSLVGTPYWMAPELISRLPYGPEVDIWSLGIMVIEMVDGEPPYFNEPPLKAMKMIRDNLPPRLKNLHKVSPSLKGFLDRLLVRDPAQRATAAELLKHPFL
T2 sequence (O96013 321-572 limits assumed): as above

Broadly, the Ki is the equilibrium dissociation constant of an inhibitor or competing ligand from its target. Usually EC50 stands for the concentration at which the effect is half-maximal. A high value points to a need for much substance. With `CN(C)C[C@@H](OC(=O)N1Cc2c(NC(=O)[C@@H]3CCCO3)n[nH]c2C1(C)C)c1ccccc1` [Example 92, (S)-2-(dimethylamino)-1-phenylethyl 6,6-dimethyl-3-((S)-tetrahydrofuran-2-carboxamido)pyrrolo[3,4-c]pyrazole-5(1H,4H,6H)-carboxylate], in assay [1], affinity was put at a Ki of 345 nM. In assay [2], the midpoint of the response, the EC50, lay at 103 nM.
`CN(C)C[C@@H](NC(=O)N1Cc2c(NC(=O)[C@@H]3C[C@H]3c3ccccc3)n[nH]c2C1(C)C)c1ccccc1` [Example 56, N-[(1S)-2-(dimethylamino)-1-phenylethyl]-6,6-dimethyl-3-({[trans-2-phenylcyclopropyl]carbonyl}amino)-4,6-dihydropyrrolo[3,4-c]pyrazole-5(1H)-carboxamide]: affinity in assay [1] was put at a Ki of 6.9 nM. Further, it took 37.1 nM to reach a half-maximal effect in assay [2] (EC50).
On to `CN(C)C[C@@H](OC(=O)N1Cc2c(NC(=O)C3CCCO3)n[nH]c2C1(C)C)c1ccccc1` (stereo partly drawn) [Example 15, (1S)-2-(dimethylamino)-1-phenylethyl 6,6-dimethyl-3-[(tetrahydrofuran-2-ylcarbonyl)amino]-4,6-dihydropyrrolo[3,4-c]pyrazole-5(1H)-carboxylate], for which, in assay [1], the Ki amounted to 145 nM. This compound had an EC50 in assay [2] of 16.1 nM.
The compound `CN(C)C[C@@H](OC(=O)N1Cc2c(NC(=O)Cc3ccc(F)cc3)n[nH]c2C1(C)C)c1ccccn1` [Example 28, (1R)-2-(dimethylamino)-1-pyridin-2-ylethyl 3-{[(4-fluorophenyl)acetyl]amino}-6,6-dimethyl-4,6-dihydropyrrolo[3,4-c]pyrazole-5(1H)-carboxylate] came in with a Ki in assay [1] of 73.2 nM. The same compound returned an EC50 in assay [2] of 280 nM.
In the same order, the values of `CO[C@@H](C)C(=O)Nc1n[nH]c2c1CN(C(=O)O[C@H](CN(C)C)c1ccccc1)C2(C)C` [Example 90, (S)-2-(dimethylamino)-1-phenylethyl 3-((S)-2-methoxypropanamido)-6,6-dimethylpyrrolo[3,4-c]pyrazole-5(1H,4H,6H)-carboxylate] are 251 nM and 4 nM.
As for `CN(C)C[C@@H](NC(=O)N1Cc2c(NC(=O)c3ccccn3)n[nH]c2C1(C)C)c1ccccc1` [Example 51, N-[(1S)-2-(dimethylamino)-1-phenylethyl]-6,6-dimethyl-3-[(pyridin-2-ylcarbonyl)amino]-4,6-dihydropyrrolo[3,4-c]pyrazole-5(1H)-carboxamide], the Ki in assay [1] was 118 nM. This compound also showed an EC50 in assay [2] of 20.3 nM.
In assay [1], `CN(C)C[C@@H](NC(=O)N1Cc2c(NC(=O)c3ccccc3)n[nH]c2C1(C)C)c1ccccc1` [Example 46, 3-(benzoylamino)-N-[(1S)-2-(dimethylamino)-1-phenylethyl]-6,6-dimethyl-4,6-dihydro pyrrolo[3,4-c]pyrazole-5(1H)-carboxamide] had a Ki of 33.6 nM. Further, it took 32.1 nM to reach a half-maximal effect in assay [2] (EC50).
For the compound `CN(C)C[C@@H](OC(=O)N1Cc2c(NC(=O)c3ccccc3F)n[nH]c2C1(C)C)c1ccccn1` [Example 26, (1R)-2-(dimethylamino)-1-pyridin-2-ylethyl 3-[(2-fluorobenzoyl)amino]-6,6-dimethyl-4,6-dihydropyrrolo[3,4-c]pyrazole-5(1H)-carboxylate], the affinity in assay [1], expressed as Ki, was 278 nM. The EC50 in assay [2] turned out to be 244 nM.
`CO[C@H](C)C(=O)Nc1n[nH]c2c1CN(C(=O)O[C@H](CN(C)C)c1ccccc1)C2(C)C` [Example 117, (S)-2-(dimethylamino)-1-phenylethyl 3-((R)-2-methoxypropanamido)-6,6-dimethylpyrrolo[3,4-c]pyrazole-5(1H,4H,6H)-carboxylate] gave a Ki in assay [1] of 357 nM. Moreover, it took 8.8 nM to reach a half-maximal effect in assay [2] (EC50).
Take `CN(C)C[C@@H](NC(=O)N1Cc2c(NC(=O)c3cscn3)n[nH]c2C1(C)C)c1ccccc1` [Example 72, N-[(1S)-2-(dimethylamino)-1-phenylethyl]-6,6-dimethyl-3-[(1,3-thiazol-4-ylcarbonyl)amino]-4,6-dihydropyrrolo[3,4-c]pyrazole-5(1H)-carboxamide]: the Ki in assay [1] was found to be 93.8 nM. The response in assay [2] was half-maximal at 362 nM (EC50).
The compound `CN(Cc1ccccc1)C[C@@H](OC(=O)N1Cc2c(NC(=O)c3ccc(F)cc3)n[nH]c2C1(C)C)c1ccccc1` [Example 82, (1S)-2-[benzyl(methyl)amino]-1-phenylethyl 3-[(4-fluorobenzoyl)amino]-6,6-dimethyl-4,6-dihydropyrrolo[3,4-c]pyrazole-5(1H)-carboxylate] displayed a Ki in assay [1] of 434 nM. In assay [2], the EC50 stood at 301 nM.
In assay [1], `CN(C)C[C@@H](OC(=O)N1Cc2c(NC(=O)c3ccc(C(F)(F)F)cc3)n[nH]c2C1(C)C)c1ccccn1` [Example 27, (1R)-2-(dimethylamino)-1-pyridin-2-ylethyl 6,6-dimethyl-3-{[4-(trifluoromethyl)benzoyl]amino}-4,6-dihydropyrrolo[3,4-c]pyrazole-5(1H)-carboxylate] displayed a Ki of 82.1 nM. This compound also gave a concentration for a half-maximal effect (EC50) in assay [2] of 79.9 nM.
As for `CN(C)C[C@@H](OC(=O)N1Cc2c(NC(=O)C3CCCCC3)n[nH]c2C1(C)C)c1ccccc1` [Example 13, (1S)-2-(dimethylamino)-1-phenylethyl 3-[(cyclohexylcarbonyl)amino]-6,6-dimethyl-4,6-dihydropyrrolo[3,4-c]pyrazole-5(1H)-carboxylate], the inhibition constant (Ki) in assay [1] is 109 nM. In assay [2], this compound came in with a half-maximal effective concentration (EC50) of 3.9 nM.
Taken in the same sequence, the figures for `CN(C)C[C@@H](OC(=O)N1Cc2c(NC(=O)c3ccccc3)n[nH]c2C1(C)C)C1CCCCC1` [Example 32, (1S)-1-cyclohexyl-2-(dimethylamino)ethyl 3-(benzoylamino)-6,6-dimethyl-4,6-dihydropyrrolo[3,4-c]pyrazole-5(1H)-carboxylate] were 57.1 nM and 162 nM.
`CN(C)C[C@@H](OC(=O)N1Cc2c(NC(=O)[C@@H]3C[C@H]3c3ccccc3)n[nH]c2C1(C)C)c1ccccn1` [Example 29, (1R)-2-(dimethylamino)-1-pyridin-2-ylethyl 6,6-dimethyl-3-({[trans-2-phenylcyclopropyl]carbonyl}-amino)-4,6-dihydropyrrolo[3,4-c]pyrazole-5(1H)-carboxylate] gave a Ki in assay [1] of 27.1 nM. The same compound came in with an EC50 in assay [2] of 419 nM.
For the compound `CN(C)C[C@@H](OC(=O)N1Cc2c(NC(=O)c3ccccc3F)n[nH]c2C1(C)C)c1ccccc1` [Example 3, (1S)-2-(dimethylamino)-1-phenylethyl 3-[(2-fluorobenzoyl)amino]-6,6-dimethyl-4,6-dihydropyrrolo[3,4-c]pyrazole-5(1H)-carboxylate], in assay [1], the Ki was 42.1 nM. The compound also had an EC50 in assay [2] of 50 nM.
`CN(C)C[C@@H](NC(=O)N1Cc2c(NC(=O)c3nc4ccccc4s3)n[nH]c2C1(C)C)c1ccccc1` [Example 104, (S)-N-(5-((2-(dimethylamino)-1-phenylethyl)carbamoyl)-6,6-dimethyl-1,4,5,6-tetrahydropyrrolo[3,4-c]pyrazol-3-yl)benzo[d]thiazole-2-carboxamide] registered a Ki in assay [1] of 89 nM. In assay [2], this compound yielded an EC50 of 9 nM.
`CC(C)C[C@@H](CN(C)C)OC(=O)N1Cc2c(NC(=O)c3ccc(F)cc3)n[nH]c2C1(C)C` [Example 36, (1S)-1-[(dimethylamino)methyl]-3-methylbutyl 3-[(4-fluorobenzoyl)amino]-6,6-dimethyl-4,6-dihydropyrrolo[3,4-c]pyrazole-5(H)-carboxylate] showed an inhibition constant Ki in assay [1] of 103 nM. Besides, the EC50 in assay [2] came to 315 nM.
Consider `CN(C)CC(OC(=O)N1Cc2c(n[nH]c2NC(=O)C2CCCO2)C1(C)C)c1cccc(F)c1` (single isomer, unassigned) [Example 83A], for which, in assay [2], a half-maximal effect (EC50) was put at 560 nM.
Consider `CC(C)[C@@H](CN(C)C)OC(=O)N1Cc2c(NC(=O)c3ccccc3)n[nH]c2C1(C)C` [Example 74, (1S)-1-[(dimethylamino)methyl]-2-methylpropyl 3-(benzoylamino)-6,6-dimethyl-4,6-dihydropyrrolo[3,4-c]pyrazole-5(1H)-carboxylate], for which, in assay [1], the Ki is 475 nM.
In assay [1], `CC1(C)c2[nH]nc(NC(=O)c3ccccc3)c2CN1C(=O)NC1CCCN(Cc2ccccc2)C1` (centres unmarked) [Example 61, 3-(benzoylamino)-N-(1-benzylpiperidin-3-yl)-6,6-dimethyl-4,6-dihydropyrrolo[3,4-c]pyrazole-5(1H)-carboxamide] yielded a Ki of 444 nM.
Turning to `CN(C)C[C@@H](OC(=O)N1Cc2c(NC(=O)C3CCOCC3)n[nH]c2C1(C)C)c1ccccc1` [Example 91, (S)-2-(dimethylamino)-1-phenylethyl 6,6-dimethyl-3-(tetrahydro-2H-pyran-4-carboxamido)pyrrolo[3,4-c]pyrazole-5(1H,4H,6H)-carboxylate], in assay [1], the affinity corresponds to a Ki of 286 nM.
In turn, `CC1(C)c2[nH]nc(NC(=O)c3ccccc3)c2CN1C(=O)N[C@H](CN)c1ccccc1` [Example 64, N-[(1S)-2-amino-1-phenylethyl]-3-(benzoylamino)-6,6-dimethyl-4,6-dihydropyrrolo[3,4-c]pyrazole-5(1H)-carboxamide] registered a Ki in assay [1] of 19.3 nM.
For the compound `CN(C)CC(OC(=O)N1Cc2c(n[nH]c2NC(=O)C2CCCO2)C1(C)C)c1cccc(F)c1` (single isomer, unassigned) [Example 84B], a half-maximal response in assay [2] (EC50) required 396 nM.
As for `CC1(C)c2[nH]nc(NC(=O)Cc3ccc(F)cc3)c2CN1C(=O)N[C@@H]1C[C@H]1c1ccccc1` (relative stereo) [Example 70, 3-{[(4-fluorophenyl)acetyl]amino}-6,6-dimethyl-N-[trans-2-phenylcyclopropyl]-4,6-dihydropyrrolo[3,4-c]pyrazole-5(1H)-carboxamide], in assay [1], the Ki was 223 nM.
Take `CC1(C)c2[nH]nc(NC(=O)C3CCC3)c2CN1C(=O)N[C@@H]1CCN(Cc2ccccc2)C1` [Example 65, N-[(3R)-1-benzylpyrrolidin-3-yl]-3-[(cyclobutylcarbonyl)amino]-6,6-dimethyl-4,6-dihydropyrrolo[3,4-c]pyrazole-5(1H)-carboxamide]: the inhibitory constant (Ki) in assay [1] worked out at 849 nM. This Ki lies about 3.8-fold higher than the previous one.
